Biological target: T1, CCR2 (Homo sapiens, UniProt P41597)
T1 construct: Membranes were prepared from THP-1 cells; endogenous in cells; host or cells: THP-1 cells (membrane preparation)
T1 sequence (P41597 1-360 isoform P41597-2): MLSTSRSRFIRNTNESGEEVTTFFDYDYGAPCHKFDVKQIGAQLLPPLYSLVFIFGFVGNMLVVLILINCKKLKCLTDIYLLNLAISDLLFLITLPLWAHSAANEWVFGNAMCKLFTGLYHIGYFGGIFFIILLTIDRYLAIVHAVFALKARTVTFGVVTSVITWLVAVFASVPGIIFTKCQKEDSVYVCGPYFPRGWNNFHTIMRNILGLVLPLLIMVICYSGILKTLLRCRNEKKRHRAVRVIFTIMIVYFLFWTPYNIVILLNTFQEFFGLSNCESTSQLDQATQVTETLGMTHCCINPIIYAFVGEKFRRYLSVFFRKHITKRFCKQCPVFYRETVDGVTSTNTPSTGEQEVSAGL
Test: CCR2 receptor membrane binding assay ([125I]MCP-1, THP-1 cell membranes, SPA beads)
Details: for Ki: dissociation constant hKi, [125I]MCP-1 binding to THP-1 membranes; for remaining activity at 10 µM: @ 10 μM test compound, THP-1 membranes, read-out: CCR2 % ctrl @ 10 μM
Procedure, shortened: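 hKi was derived by iterative law-of-mass-action fitting of scintillation counts read at 8 h. Compound (1% DMSO final) competed with ca. 25000 cpm [125I]MCP-1 for THP-1 membranes bound to WGA-PVT beads. Buffer: 25 mM HEPES pH 7.2, 5 mM MgCl2, 0.5 mM CaCl2, 0.2% BSA.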

| Ki | remaining activity at 10 µM | Compound |
| --- | --- | --- |
| 18 nM | – | CNC(=O)C1CCN(C2CCN(C(=O)c3ncnc(NCC4CCCC(c5ccc(F)cc5)C4)c3C)CC2)CC1 (stereo not shown) [Example 159aa] |
| 353 nM | 15% | Cc1c(NCCc2ccc(Cl)c(Cl)c2)ncnc1C(=O)N1CCC(N2CCC(F)(F)CC2)CC1 [Example 164] |
| 43 nM | 3% | Cc1nc(NCc2ccc(C(C)(C)C)cc2)c(C)c(C(=O)N2CCC(N3CCC(N(C)S(C)(=O)=O)CC3)CC2)n1 [Example 83] |
| 15 nM | – | Cc1nc(NCC2CCC(c3ccc(C(F)(F)F)cc3)O2)c(C)c(C(=O)N2CCC(N3CCC(N(C)S(C)(=O)=O)CC3)CC2)n1 (stereo not shown) [Example 159ib] |
| 199 nM | – | Cc1c(NCC2COC(c3ccccc3)C2)ncnc1C(=O)N1CCC(N2CCC(N(C)S(C)(=O)=O)CC2)CC1 (stereo not shown) [Example 159fb] |
| 3800 nM | 43% | Cc1c(NCc2ccc(C(C)(C)C)cc2)ncnc1C(=O)N1CCCC(N2CCOCC2)CC1 (stereo not shown) [Example 162] |
| 25 nM | 4% | Cc1nc(NC[C@H]2CCN(c3ccccc3)C2)c(C)c(C(=O)N2CCC(N3CCC(N(C)S(C)(=O)=O)CC3)CC2)n1 [Example 159] |
| 19 nM | – | Cc1nc(NC[C@@H]2CC[C@H](c3ccc(C(F)(F)F)cc3)O2)c(C)c(C(=O)N2CCC(N3CCC(N(C)S(C)(=O)=O)CC3)CC2)n1 [Example 159ka] |
| 21 nM | – | Cc1c(NCC2COc3ccc(Cl)cc3C2)ncnc1C(=O)N1CCC(N2CCC(N(C)S(C)(=O)=O)CC2)CC1 (stereo not shown) [Example 159sb] |
| 27 nM | 0% | CCN(C1CCN(C2CCN(C(=O)c3ncnc(NCCc4ccc(Cl)c(Cl)c4)c3C)CC2)CC1)S(C)(=O)=O [Example 178] |
| 22 nM | – | Cc1c(NCC2CCC(C)CC2)ncnc1C(=O)N1CCC(N2CCC(N(C)S(C)(=O)=O)CC2)CC1 (stereo not shown) [Example 159l] |
| 108 nM | 5% | Cc1c(NCc2ccc(C(C)(C)C)cc2)ncnc1C(=O)N1CCC(N2CCC(C(C)(C)C)CC2)CC1 [Example 200] |
| 23 nM | – | Cc1nc(NC[C@H]2CC[C@H](c3ccc(Cl)cc3)O2)c(C)c(C(=O)N2CCC(N3CCC(N(C)S(C)(=O)=O)CC3)CC2)n1 [Example 159ua] |
| 422 nM | 7% | Cc1c(NCCc2ccc(Cl)cc2)ncnc1C(=O)N1CCC(N2CCCCC2)CC1 [Example 141] |
| 356 nM | 13% | Cc1c(NCc2ccc(C(C)(C)C)nc2)ncnc1C(=O)N1CCC(N2CCC(N(C)S(C)(=O)=O)CC2)CC1 [Example 54] |
| 38 nM | – | COC1COCCC1NC1CCN(C(=O)c2ncnc(NCC3CCCCC3)c2C)CC1 (stereo not shown) [Example 159dc] |
| 464 nM | 27% | Cc1c(NCc2ccc(F)c(Cl)c2)ncnc1C(=O)N1CCC(N2CCC(O)CC2)CC1 [Example 111] |
| 672 nM | 31% | Cc1c(NCCc2ccc(F)c(F)c2)ncnc1C(=O)N1CCC(N2CCCCC2)CC1 [Example 132] |
| 2290 nM | 54% | Cc1c(NCCc2ccc(Cl)c(Cl)c2)ncnc1C(=O)N1CCC(N2CCC[C@H](NS(C)(=O)=O)C2)CC1 [Example 169] |

| Ki | remaining activity at 10 µM | Compound |
| --- | --- | --- |
| 65 nM | 8% | Cc1c(NCc2ccc(C(C)C)cc2)ncnc1C(=O)N1CCC(N2CCC(N(C)S(C)(=O)=O)CC2)CC1 [Example 64] |
| 81 nM | 7% | Cc1c(NCc2ccc(Cl)c(Cl)c2)ncnc1C(=O)N1CCC(N2CCC(NS(C)(=O)=O)CC2)CC1 [Example 72] |
| 55 nM | – | Cc1c(NCc2ccc(C(C)(C)C)cc2)ncnc1C(=O)N1CCC(N2CCC3(CC2)CNC(=O)O3)CC1 [Example 228gj] |
| 23 nM | – | CO[C@@H]1COCC[C@@H]1NC1CCN(C(=O)c2ncnc(NCc3ccc(C(C)(C)C)cc3)c2C)CC1 [Example 228ga] |
| 1020 nM | 36% | Cc1c(NCc2cccc(OC(F)(F)F)c2)ncnc1C(=O)N1CCC(N2CCC(O)CC2)CC1 [Example 8] |
| 33 nM | – | CO[C@@H]1COCC[C@@H]1NC1CCN(C(=O)c2ncnc(NC[C@@H]3CCC[C@H](c4ccc(C)o4)C3)c2C)CC1 [Example 275db] |
| 5 nM | – | Cc1c(NCC2CCCC(c3ccc(Cl)cc3)C2)ncnc1C(=O)N1CCC(N2CCC(N(C)S(C)(=O)=O)CC2)CC1 (stereo not shown) [Example 159da] |
| 773 nM | 14% | COc1ccc(CCNc2ncnc(C(=O)N3CCC(N4CCCCC4)CC3)c2C)cc1Cl [Example 136] |
| 986 nM | 35% | Cc1c(NCc2ccc(-c3ccccc3)cc2)ncnc1C(=O)N1CCC(N2CCC(O)CC2)CC1 [Example 101] |
| 2320 nM | 33% | Cc1c(NCc2cccc(-c3ccccc3)c2)ncnc1C(=O)N1CCC(N2CCC(O)C2)CC1 (stereo not shown) [Example 239] |
| 186 nM | 14% | CNC(=O)[C@H]1CCN(C2CCN(C(=O)c3ncnc(NCc4ccc(Cl)c(Cl)c4)c3C)CC2)C1 [Example 257] |
| 214 nM | 2% | COC1CCN(C2CCN(C(=O)c3ncnc(NCc4ccc(C)c(Cl)c4)c3C)CC2)CC1 [Example 98] |
| 1840 nM | 23% | CCc1c(NCc2cccc(-c3ccccc3)c2)ncnc1C(=O)N1CCC(N2CCOCC2)CC1 [Example 276] |
| 399 nM | 23% | Cc1ccc(CCNc2ncnc(C(=O)N3CCC(N4CCC(O)CC4)CC3)c2C)cc1C [Example 126] |
| 1610 nM | 30% | O=C(c1cc(NCc2ccc(-c3ccccc3)cc2)ncn1)N1CCC(N2CCCC(O)C2)CC1 (stereo not shown) [Example 103] |
| 88 nM | – | Cc1c(NCC2Cc3ccccc32)ncnc1C(=O)N1CCC(N2CCC(N(C)S(C)(=O)=O)CC2)CC1 (stereo not shown) [Example 159nb] |
| 4420 nM | 48% | Cc1c(NCc2cccc(-c3ccccc3)c2)cccc1C(=O)N1CCC(N2CCC(O)CC2)CC1 [Example 283] |
| 120 nM | 8% | CNC(=O)C1CCN(C2CCN(C(=O)c3ncnc(NCc4ccc(C(C)(C)C)cc4)c3C)CC2)CC1 [Example 261] |
| 1010 nM | 24% | CCc1c(NCCc2ccc(Cl)c(Cl)c2)ncnc1C(=O)N1CCC(N2CCOCC2)CC1 [Example 281] |

| Ki | remaining activity at 10 µM | Compound |
| --- | --- | --- |
| 2720 nM | 53% | Cc1c(NCCc2ccc(Cl)c(Cl)c2)ncnc1C(=O)N1CCC(N2CCC[C@@H](NS(C)(=O)=O)C2)CC1 [Example 174] |
| 542 nM | 26% | Cc1c(NCc2cccc(Cl)c2)ncnc1C(=O)N1CCC(N2CCC(O)CC2)CC1 [Example 123] |
| 593 nM | 19% | Cc1c(C(=O)N2CCC(N3CCC(O)CC3)CC2)ccnc1NCc1ccc(Cl)c(Cl)c1 [Example 275] |
| 422 nM | 8% | Cc1ccc(CCNc2ncnc(C(=O)N3CCC(N4CCCCC4)CC3)c2C)cc1C [Example 143] |
| 181 nM | 17% | Cc1c(NC[C@@H]2CCC[C@H](c3ccccc3)C2)ncnc1C(=O)N1CCC(N2CCC(O)CC2)CC1 [Example 145] |
| 426 nM | 45% | Cc1c(NCc2ccc(Cl)c(Cl)c2)ncnc1C(=O)N1CCC(N2Cc3ccccc3C2)CC1 [Example 183] |
| 3720 nM | 40% | CCOC(=O)N1CCC(NC2CCN(C(=O)c3ncnc(NCc4ccc(C(C)(C)C)cc4)c3C)CC2)C(OC)C1 (stereo not shown) [Example 228e] |
| 28 nM | – | Cc1c(NCC2CCCCC2)ncnc1C(=O)N1CCC(N2CCC(N(C)S(C)(=O)=O)CC2)CC1 [Example 159e] |
| 336 nM | 12% | Cc1c(NCC2CCN(c3ccccc3)CC2)ncnc1C(=O)N1CCC(N2CCC(N(C)S(C)(=O)=O)CC2)CC1 [Example 58] |
| 15 nM | – | CO[C@@H]1COCC[C@@H]1NC1CCN(C(=O)c2ncnc(NC[C@H]3C[C@H](c4ccccc4)C3)c2C)CC1 [Example 275df] |
| 2 nM | 4% | COC1COCCC1NC1CCN(C(=O)c2ncnc(NCC3CCC[C@@H](c4ccccc4)C3)c2C)CC1 (stereo partly shown) [Example 228b] |
| 225 nM | 12% | Cc1c(NCC2Cc3ccccc3C2)ncnc1C(=O)N1CCC(N2CCOCC2)CC1 [Example 46] |
| 770 nM | 29% | Cc1nc(NC2CCCC(c3ccccc3)C2)c(C)c(C(=O)N2CCC(N3CCC(NS(C)(=O)=O)CC3)CC2)n1 (stereo not shown) [Example 89] |
| 53 nM | 7% | Cc1nc(NCc2ccc(Cl)c(F)c2)c(C)c(C(=O)N2CCC(N3CCC(N(C)S(C)(=O)=O)CC3)CC2)n1 [Example 80] |
| 99 nM | 7% | COC1CCN(C2CCN(C(=O)c3ncnc(NCc4ccc(C(C)(C)C)cc4)c3C)CC2)CC1 [Example 208] |
| 4810 nM | 60% | Cc1c(NCc2ccc(Cl)c(Cl)c2)ncnc1C(=O)N1CCC(N(C)CC2(C)COC2)CC1 [Example 180] |
| 91 nM | 7% | Cc1c(NC[C@@H]2CCC[C@@H](c3ccccc3)C2)ncnc1C(=O)N1CCC(N2CCC(O)CC2)CC1 [Example 144] |
| 69 nM | 13% | CCS(=O)(=O)N(C)C1CCN(C2CCN(C(=O)c3ncnc(NCC4CCCN(c5ccccc5)C4)c3C)CC2)CC1 (stereo not shown) [Example 38] |

From patent US8835440B2, “Cyclic pyrimidin-4-carboxamides as CCR2 receptor antagonists for treatment of inflammation, asthma and COPD” (Boehringer Ingelheim International GmbH, priority 2008, dated 2014)
